Assay [1] concerns the target T1, 5-hydroxytryptamine receptor 2C (Sus scrofa, UniProt K7GSR7).
T1 sequence (K7GSR7 whole entry): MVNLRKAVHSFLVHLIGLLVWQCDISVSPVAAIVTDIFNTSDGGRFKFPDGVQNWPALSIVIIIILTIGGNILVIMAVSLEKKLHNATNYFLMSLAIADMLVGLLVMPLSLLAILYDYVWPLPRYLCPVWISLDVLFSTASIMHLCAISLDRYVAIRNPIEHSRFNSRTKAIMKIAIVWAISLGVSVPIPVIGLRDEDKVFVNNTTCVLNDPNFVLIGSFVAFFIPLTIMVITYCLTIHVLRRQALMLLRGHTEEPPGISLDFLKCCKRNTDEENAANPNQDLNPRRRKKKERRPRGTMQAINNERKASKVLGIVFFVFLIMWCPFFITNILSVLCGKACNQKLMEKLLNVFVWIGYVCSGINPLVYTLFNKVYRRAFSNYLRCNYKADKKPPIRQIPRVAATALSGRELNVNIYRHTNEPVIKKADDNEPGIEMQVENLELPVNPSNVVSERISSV

The target of assay [2] is T2, 5-hydroxytryptamine receptor 3A (Mus musculus, UniProt P23979).
T2 sequence (P23979 whole entry): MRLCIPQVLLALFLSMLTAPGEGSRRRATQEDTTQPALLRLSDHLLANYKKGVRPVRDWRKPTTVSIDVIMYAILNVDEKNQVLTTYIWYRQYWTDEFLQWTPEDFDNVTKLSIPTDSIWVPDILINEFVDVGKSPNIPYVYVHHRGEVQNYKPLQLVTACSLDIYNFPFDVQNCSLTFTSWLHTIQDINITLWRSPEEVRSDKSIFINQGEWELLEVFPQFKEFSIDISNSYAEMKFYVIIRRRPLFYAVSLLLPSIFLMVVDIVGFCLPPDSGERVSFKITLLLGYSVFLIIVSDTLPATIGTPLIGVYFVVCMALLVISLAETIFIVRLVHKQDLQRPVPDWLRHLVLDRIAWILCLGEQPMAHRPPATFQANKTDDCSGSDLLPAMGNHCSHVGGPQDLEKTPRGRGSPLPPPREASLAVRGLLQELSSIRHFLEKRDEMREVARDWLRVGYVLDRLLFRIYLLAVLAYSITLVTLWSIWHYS

Assay [3] concerns the target T3, Alpha-2A adrenergic receptor (Homo sapiens, UniProt P08913).
T3 sequence (P08913 whole entry): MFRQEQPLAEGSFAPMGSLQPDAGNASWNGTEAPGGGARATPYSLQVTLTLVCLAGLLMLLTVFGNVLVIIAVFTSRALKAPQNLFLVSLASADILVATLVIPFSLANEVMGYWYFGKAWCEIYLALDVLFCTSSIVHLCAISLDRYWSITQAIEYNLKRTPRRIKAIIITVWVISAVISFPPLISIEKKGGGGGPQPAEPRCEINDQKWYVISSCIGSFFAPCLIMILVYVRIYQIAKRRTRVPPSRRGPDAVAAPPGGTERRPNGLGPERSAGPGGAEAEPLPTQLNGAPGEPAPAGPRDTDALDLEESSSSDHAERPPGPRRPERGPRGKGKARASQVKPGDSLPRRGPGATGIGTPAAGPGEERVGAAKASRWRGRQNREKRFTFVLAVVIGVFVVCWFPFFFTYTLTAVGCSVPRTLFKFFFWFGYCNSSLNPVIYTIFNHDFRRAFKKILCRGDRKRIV

For assay [4], the target named is 5-hydroxytryptamine receptor 1B (Cavia porcellus, UniProt O08892).
The target in assay [5] is 5-hydroxytryptamine receptor 1D (Homo sapiens, UniProt P28221).
Another assay has as its target D(2) dopamine receptor (Homo sapiens, UniProt P14416).

Values joined by “and” are separate entries in the source; they are usually repeats but may differ in a detail not shown here. Equal values may be shown once.

Sequence of 5-hydroxytryptamine receptor 1D (P28221 whole entry): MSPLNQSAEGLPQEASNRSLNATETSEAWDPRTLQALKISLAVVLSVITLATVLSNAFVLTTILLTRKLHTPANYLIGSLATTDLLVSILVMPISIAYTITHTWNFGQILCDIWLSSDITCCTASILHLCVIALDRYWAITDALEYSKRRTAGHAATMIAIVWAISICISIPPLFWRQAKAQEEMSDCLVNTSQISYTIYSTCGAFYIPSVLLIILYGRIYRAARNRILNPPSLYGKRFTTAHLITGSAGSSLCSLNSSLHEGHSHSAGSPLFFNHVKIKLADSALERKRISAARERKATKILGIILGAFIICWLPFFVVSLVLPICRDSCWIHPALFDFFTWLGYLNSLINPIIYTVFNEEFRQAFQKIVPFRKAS
Sequence of 5-hydroxytryptamine receptor 1B (O08892 whole entry): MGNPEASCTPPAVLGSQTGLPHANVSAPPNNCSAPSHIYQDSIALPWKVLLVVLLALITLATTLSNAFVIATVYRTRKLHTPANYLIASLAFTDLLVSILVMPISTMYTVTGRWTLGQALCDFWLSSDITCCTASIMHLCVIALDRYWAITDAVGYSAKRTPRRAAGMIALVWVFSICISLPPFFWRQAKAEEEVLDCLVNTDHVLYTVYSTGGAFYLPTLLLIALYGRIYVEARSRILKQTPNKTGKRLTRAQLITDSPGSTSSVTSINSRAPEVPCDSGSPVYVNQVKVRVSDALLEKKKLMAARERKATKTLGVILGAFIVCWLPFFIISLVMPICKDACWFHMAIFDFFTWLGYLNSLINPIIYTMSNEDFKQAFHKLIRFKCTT
Sequence of D(2) dopamine receptor (P14416 whole entry): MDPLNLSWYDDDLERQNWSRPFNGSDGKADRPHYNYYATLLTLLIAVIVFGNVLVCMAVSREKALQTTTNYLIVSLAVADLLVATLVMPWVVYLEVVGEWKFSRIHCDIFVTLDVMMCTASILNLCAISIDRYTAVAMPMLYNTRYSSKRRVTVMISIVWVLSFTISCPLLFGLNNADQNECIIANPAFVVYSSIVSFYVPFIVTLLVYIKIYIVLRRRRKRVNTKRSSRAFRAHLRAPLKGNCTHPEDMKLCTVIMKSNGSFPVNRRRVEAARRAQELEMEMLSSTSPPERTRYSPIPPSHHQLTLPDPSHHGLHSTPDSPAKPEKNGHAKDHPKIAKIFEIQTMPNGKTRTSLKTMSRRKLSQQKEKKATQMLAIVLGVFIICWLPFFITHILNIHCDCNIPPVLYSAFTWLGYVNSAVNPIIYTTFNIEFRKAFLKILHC

The term Ki denotes the equilibrium dissociation constant of an inhibitor or competing ligand from its target. `NCCc1c[nH]c2ccccc12` [1H-indole-3-ethanamine] came in with a Ki in assay [1] of 0.0794 µM.
The compound `Cc1nccn1CC1CCc2c(c3ccccc3n2C)C1=O` (configuration not stated) [NSC_68647] registered a Ki in assay [2] of 0.00398 µM.
Regarding `COC1(C2=NCCN2)COc2ccccc2O1` (configuration not stated) [RX821002], in assay [3], the affinity corresponds to a Ki of 0.001 µM.
As to `NCCc1c[nH]c2ccc(O)cc12` [[3H]-5-HT], the Ki in assay [4] is 0.00251 µM.
With `COC(=O)[C@@H]1[C@H]2C[C@H]3c4[nH]c5ccccc5c4CCN3C[C@@H]2CC[C@@H]1O` [yohimbic acid methyl ester], the Ki in assay [5] was 0.0199 µM and 0.0251 µM; in assay [4], 0.0501 µM; on D(2) dopamine receptor, 0.398 µM.

The values are drawn from BindingDB's records for doi:10.1002/(SICI)1098-2396(200002)35:2<79::AID-SYN1>3.0.CO;2-X (Institut De Recherches Servier, 2000).
